Measurements taken from patent US20220401564A1 (DANA-FARBER CANCER INSTITUTE, INC., priority 2019, published 2022).

Legend:
[1] = test system: other identified HDAC proteins; assay: Change in cellular protein abundance (TMT proteomics) in Kelly cells; type: cell-based, human; details: 1 μM, 5 hours, vs DMSO
Procedure: (§1) Lysis buffer (8 M Urea, 50 mM NaCl, 50 mM 4-(2hydroxyethyl)-1-piperazineethanesulfonic acid (EPPS) pH 8.5, protease and phosphatase inhibitors from Roche®) were added to the cell pellets and homogenized by 20 passes through a 21 gauge (1.25 in. long) needle to achieve a cell lysate with a protein concentration between 1-4 mg mL-1. A micro-BCA assay (Pierce™) was used to determine the final protein concentration in the cell lysate. 200 μg of protein for each sample were reduced and alkylated as described in Donovan et al., Elife 7:e38430 (2018).
Proteins were precipitated using methanol/chloroform. Four volumes of methanol were added to the cell lysate, followed by one volume of chloroform, and finally three volumes of water. The mixture was vortexed and centrifuged to separate the chloroform phase from the aqueous phase. […]
Anhydrous ACN was added to each peptide sample to a final concentration of 30% v/v, and labeling was induced with the addition of TMT reagent to each sample at a ratio of 1:4 peptide:TMT label. […] The sample channels were combined at a 1:1:1:1:1:1:1:1:1:1:1 ratio, desalted using Cis solid phase extraction cartridges (Waters®) and analyzed by LC-MS for channel ratio comparison. Samples were then combined using the adjusted volumes determined in the channel ratio analysis and dried down in a speed vacuum. […]

VHL = target: T1, VHL (Homo sapiens, UniProt P40337); assay: Cellular VHL engagement assay (BRD4BD2-GFP / mCherry reporter cells); type: cell-based; details: with 250 nM AT1, 5 h
T1 construct: Cells stably expressing the BRD4BD2-GFP with mCherry reporter (40) were seeded; endogenous in cells
T1 sequence (P40337 whole entry, species assumed): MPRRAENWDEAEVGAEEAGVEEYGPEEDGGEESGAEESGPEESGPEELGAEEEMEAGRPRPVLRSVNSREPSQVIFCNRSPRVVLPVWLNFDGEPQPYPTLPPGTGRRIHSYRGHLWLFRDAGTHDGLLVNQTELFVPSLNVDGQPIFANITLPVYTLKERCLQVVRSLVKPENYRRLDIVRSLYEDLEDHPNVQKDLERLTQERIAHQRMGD
Procedure: Cells stably expressing the BRD4BD2-GFP with mCherry reporter (40) were seeded at 30-50% confluency in 384-well plates with 50 μL per well of FluoroBrite™ DMEM media (Thermo Fisher Scientific, A18967) supplemented with 10% FBS a day before compound treatment. Compounds and 250 nM AT1((2S,4R)-1-(2R)-2-Acetamido-3-[[6-[2-[(6S)-4-(4-chlorophenyl)-2,3,9-trimethyl-6H-thieno[3,2-f][1,2,4]triazolo[4,3-a][1,4]diazepin-6-yl]acetamido]hexyl]thio]-3-methylbutanoyl]-4-hydroxy-N-[4-(4-methylthiazol-5-yl)benzyl)pyrrolidinine-2-carboxamide) were dispensed using a D300e Digital Dispenser (HP), normalized to 0.5% DMSO, and incubated with the cells for 5 h. The assay plate was imaged immediately using an Acumen® High Content Imager (TTP Labtech) with 488 nm and 561 nm lasers in a […] grid per well format. The resulting images were analyzed using CellProfiler™.
A series of image analysis steps (an ‘image analysis pipeline’) was constructed. First, the red and green channels were aligned and cropped to target the middle of each well (to avoid analysis of the heavily clumped cells at the edges). A background illumination function was calculated for both red and green channels of each well individually and subtracted to correct for illumination variations across the 384-well plate from various sources of error. An additional step was then applied to the green channel to suppress the analysis of large auto fluorescent artifacts and enhance the analysis of cell specific fluorescence by way of selecting for objects under a given size (30 A.U.) and with a given shape (speckles). mCherry-positive cells were then identified in the red channel by filtering for objects 8-60 pixels in diameter and by using intensity to distinguish between clumped objects. The green channel was then segmented into GFP positive and negative areas and objects were labeled as GFP positive if at least 40% of it overlapped with a GFP positive area. The fraction of GFP-positive cells/mCherry-positive cells in each well was then calculated, and the green and red images were rescaled for visualization.

HDAC3 [2] = target: T2, HDAC3 (Homo sapiens, UniProt O15379); assay: Change in cellular protein abundance (TMT proteomics) in Kelly cells; type: cell-based; design: relative change in relative protein abundance with treatment of Kelly cells; endogenous in cells; host or cells: Kelly cells
Procedure: as §1
Target sequence in this assay (O15379 whole entry): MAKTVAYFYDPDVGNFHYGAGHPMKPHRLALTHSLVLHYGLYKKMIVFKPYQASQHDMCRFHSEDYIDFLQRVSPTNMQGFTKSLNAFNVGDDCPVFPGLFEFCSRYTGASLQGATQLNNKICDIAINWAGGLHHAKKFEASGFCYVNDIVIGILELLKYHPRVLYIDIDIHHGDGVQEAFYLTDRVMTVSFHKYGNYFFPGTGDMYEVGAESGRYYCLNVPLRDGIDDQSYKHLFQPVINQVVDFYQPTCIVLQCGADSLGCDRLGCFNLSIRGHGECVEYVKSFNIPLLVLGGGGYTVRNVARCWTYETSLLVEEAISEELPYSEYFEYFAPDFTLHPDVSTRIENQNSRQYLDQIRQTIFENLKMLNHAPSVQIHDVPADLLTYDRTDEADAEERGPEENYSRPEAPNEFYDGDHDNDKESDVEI
Proteins were precipitated using methanol/chloroform. Four volumes of methanol were added to the cell lysate, followed by one volume of chloroform, and finally three volumes of water. The mixture was vortexed and centrifuged to separate the chloroform phase from the aqueous phase. The precipitated protein was washed with three volumes of methanol, centrifuged and the resulting washed precipitated protein was allowed to air dry. The precipitated protein was resuspended in 4 M Urea, 50 mM HEPES pH 7.4, followed by dilution to 1 M urea with the addition of 200 mM EPPS, pH 8. Proteins were first digested with LysC (1:50; enzyme:protein) for 12 hours at room temperature. The LysC digestion was diluted to 0.5 M Urea with 200 mM EPPS pH 8 followed by digestion with trypsin (1:50; enzyme:protein) for 6 hours at 37° C. Tandem mass tag (TMT) reagents (Thermo Fisher Scientific) were dissolved in anhydrous acetonitrile (ACN) according to manufacturer's instructions.
Anhydrous ACN was added to each peptide sample to a final concentration of 30% v/v, and labeling was induced with the addition of TMT reagent to each sample at a ratio of 1:4 peptide:TMT label. The 10-plex labeling reactions were performed for 1.5 hours at room temperature and the reaction quenched by the addition of hydroxylamine to a final concentration of 0.3% for 15 minutes at room temperature. The sample channels were combined at a 1:1:1:1:1:1:1:1:1:1:1 ratio, desalted using Cis solid phase extraction cartridges (Waters®) and analyzed by LC-MS for channel ratio comparison. Samples were then combined using the adjusted volumes determined in the channel ratio analysis and dried down in a speed vacuum. The combined sample was then resuspended in 1% formic acid, and acidified (pH 2-3) before being subjected to desalting with C18 SPE (Sep-Pak®, Waters®). Samples were then offline fractionated into 96 fractions by high pH reverse-phase HPLC (Agilent® LC1260) through an aeris peptide xb-c18 column (Phenomenex®) with mobile phase A containing 5% acetonitrile and 10 mM NH4HCO3 in LC-MS grade H2O, and mobile phase B containing 90% acetonitrile and 10 mM NH4HCO3 in LC-MS grade H2O (both pH 8.0). The 96 resulting fractions were then pooled in a non-continuous manner into 24 fractions and these fractions were used for subsequent mass spectrometry analysis.
Data were collected using an Orbitrap Fusion™ Lumos™ mass spectrometer (Thermo Fisher Scientific, San Jose, Calif., USA) coupled with a Proxeon EASY-nLC™ 1200 LC pump (Thermo Fisher Scientific). Peptides were separated on an EasySpray™ ES803 75 μm inner diameter microcapillary column (ThermoFisher Scientific).
Each analysis used an MS3-based TMT method as described previously. The data were acquired using a mass range of m z 340-1350, resolution 120,000, automatic gain control (AGC) target 1×10^6, maximum injection time 100 ms, dynamic exclusion of 120 seconds for the peptide measurements in the Orbitrap Fusion™ Lumos™ mass spectrometer. Data dependent MS2 spectra were acquired in the ion trap with a normalized collision energy (NCE) set at 55%, AGC target set to 1.5×10^5 and a maximum injection time of 150 ms. […]

HDAC1 = target: T3, HDAC1 (Homo sapiens, UniProt Q13547); assay: HDAC enzymatic assay (Reaction Biology), fluorogenic substrate; type: biochemical
T3 construct: purchased Reaction Biology
T3 sequence (Q13547 whole entry): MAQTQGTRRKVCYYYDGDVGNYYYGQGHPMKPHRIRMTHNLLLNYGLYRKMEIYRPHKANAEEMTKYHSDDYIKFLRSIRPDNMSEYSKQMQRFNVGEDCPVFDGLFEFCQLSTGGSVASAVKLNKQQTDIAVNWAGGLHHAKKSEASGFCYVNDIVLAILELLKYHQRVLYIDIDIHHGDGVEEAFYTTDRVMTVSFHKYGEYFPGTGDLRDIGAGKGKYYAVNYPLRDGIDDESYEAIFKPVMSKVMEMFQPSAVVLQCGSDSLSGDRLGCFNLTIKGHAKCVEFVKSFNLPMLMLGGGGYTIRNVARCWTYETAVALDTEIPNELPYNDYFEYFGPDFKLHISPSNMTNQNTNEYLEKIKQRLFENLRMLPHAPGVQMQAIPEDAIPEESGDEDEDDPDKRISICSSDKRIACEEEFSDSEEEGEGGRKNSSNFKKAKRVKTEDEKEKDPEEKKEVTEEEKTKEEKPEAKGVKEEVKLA
Procedure: (§2) Compounds 2 and 9 were tested in an enzymatic assay from Reaction Biology® against HDAC isoforms.
(§3) Base Reaction buffer: 50 mM Tris-HCl, pH8.0, 137 mM NaCl, 2.7 mM KCl, and 1 mM MgCl2. Add fresh: 1 mg/ml BSA, 1% DMSO
(§4) Fluorogenic HDAC General Substrate (HDAC1, HDAC2, HDAC3, HDAC6, HDAC10, and HDAC11): 50 μM, Arg-His-Lys-Lys(Ac)-AMC
(§5) 1. Delivered 2X enzyme in wells of reaction plate except in the control wells and added buffer to control wells. 2. Delivered compounds in 100% DMSO into the enzyme mixture by Acoustic technology (Echo550; nanoliter range). Spin down and pre-incubation. 3. Delivered 2X Substrate Mixture (Fluorogenic HDAC Substrate and co-factor if applicable) in all reaction wells to initiate the reaction. Spin and shake. 4. Incubated for 30 min for Class 2A, 1 h for HDAC1, 2, 3, and 6, and 2 h for the rest of HDAC isoforms and SIRTs at 30° C. with seal.
(§6) 5. Added Developer with Trichostatin A (or Nicotinamide for SIRTs) to stop the reaction and to generate fluorescent color. 6. The fluorescence that was generated was detected with excitation (Ex) at […] and emission (Em) at 460 nM by the EnVision Multilabel Plate Reader (PerkinElmer®, Santa Clara, Calif., USA).
(§7) IC50 values were derived from a 10-dose response curve. As shown in Tables 1-2, the addition of a linker and CRBN targeting group altered the isoform selectivity of the SAHA-based degrader compounds.

HDAC2 = target: T4, HDAC2 (Homo sapiens, UniProt Q92769); assay: as above; type: biochemical
T4 construct: purchased Reaction Biology
T4 sequence (Q92769 whole entry): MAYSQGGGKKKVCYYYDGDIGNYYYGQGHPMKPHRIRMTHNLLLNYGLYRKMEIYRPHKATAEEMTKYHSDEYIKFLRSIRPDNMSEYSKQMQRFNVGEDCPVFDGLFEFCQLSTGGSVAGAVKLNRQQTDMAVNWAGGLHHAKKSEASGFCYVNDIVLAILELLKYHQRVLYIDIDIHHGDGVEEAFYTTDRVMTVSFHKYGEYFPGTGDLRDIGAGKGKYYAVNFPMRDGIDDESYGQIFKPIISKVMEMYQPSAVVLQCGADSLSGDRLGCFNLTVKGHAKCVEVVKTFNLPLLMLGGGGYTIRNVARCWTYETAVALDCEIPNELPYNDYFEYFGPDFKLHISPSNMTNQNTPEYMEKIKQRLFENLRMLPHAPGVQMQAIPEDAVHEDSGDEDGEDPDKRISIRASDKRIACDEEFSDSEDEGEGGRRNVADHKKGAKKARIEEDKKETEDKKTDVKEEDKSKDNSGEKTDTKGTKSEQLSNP
Procedure: as §2, §3, §4, §5, §6, §7

HDAC3 [3] = target: T2, HDAC3; assay: as above; type: biochemical; design: purchased Reaction Biology
Procedure: as §2, §3, §4, §5, §6, §7
Target sequence in this assay (O15379 whole entry): as the sequence (O15379 whole entry) above
Target sequence in this assay (Q9Y618 395-489 partner limits assumed): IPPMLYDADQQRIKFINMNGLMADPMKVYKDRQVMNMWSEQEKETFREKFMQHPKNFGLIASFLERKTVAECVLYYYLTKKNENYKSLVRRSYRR

HDAC6 = target: T5, HDAC6 (Homo sapiens, UniProt Q9UBN7); assay: as above; type: biochemical; design: purchased Reaction Biology
T5 sequence (Q9UBN7 1-1215): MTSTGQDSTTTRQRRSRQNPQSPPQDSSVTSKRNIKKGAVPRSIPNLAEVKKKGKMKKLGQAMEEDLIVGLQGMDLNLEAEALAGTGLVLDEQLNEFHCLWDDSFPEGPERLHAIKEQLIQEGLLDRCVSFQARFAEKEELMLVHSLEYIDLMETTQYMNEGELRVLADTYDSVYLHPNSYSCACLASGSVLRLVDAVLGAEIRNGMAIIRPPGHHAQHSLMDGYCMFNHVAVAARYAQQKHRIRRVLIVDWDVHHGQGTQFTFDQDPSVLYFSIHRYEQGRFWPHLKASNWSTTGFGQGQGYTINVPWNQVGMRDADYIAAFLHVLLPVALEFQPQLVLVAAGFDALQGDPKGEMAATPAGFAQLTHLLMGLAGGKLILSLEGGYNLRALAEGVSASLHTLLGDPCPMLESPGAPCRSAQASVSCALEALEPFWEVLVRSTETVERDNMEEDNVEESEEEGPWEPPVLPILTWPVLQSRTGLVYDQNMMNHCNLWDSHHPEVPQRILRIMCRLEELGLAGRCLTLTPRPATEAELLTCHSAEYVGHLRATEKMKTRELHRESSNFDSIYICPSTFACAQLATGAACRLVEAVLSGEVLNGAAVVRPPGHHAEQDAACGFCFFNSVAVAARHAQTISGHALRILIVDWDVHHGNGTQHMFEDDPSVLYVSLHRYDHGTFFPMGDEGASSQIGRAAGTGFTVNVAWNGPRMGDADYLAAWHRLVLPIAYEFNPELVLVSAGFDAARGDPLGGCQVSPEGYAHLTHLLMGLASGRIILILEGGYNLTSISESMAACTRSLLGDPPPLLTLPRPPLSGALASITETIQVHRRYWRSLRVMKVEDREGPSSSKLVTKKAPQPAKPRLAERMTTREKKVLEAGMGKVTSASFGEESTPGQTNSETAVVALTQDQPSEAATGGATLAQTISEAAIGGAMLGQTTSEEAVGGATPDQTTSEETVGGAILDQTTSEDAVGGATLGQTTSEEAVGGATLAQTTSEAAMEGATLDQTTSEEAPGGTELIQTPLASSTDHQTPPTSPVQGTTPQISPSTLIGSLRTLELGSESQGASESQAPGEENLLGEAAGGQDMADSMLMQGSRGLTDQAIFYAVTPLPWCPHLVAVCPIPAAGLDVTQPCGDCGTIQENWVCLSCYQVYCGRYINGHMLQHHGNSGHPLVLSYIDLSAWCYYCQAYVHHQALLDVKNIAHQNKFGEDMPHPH
Procedure: as §2, §3, §4, §5, §6, §7

HDAC8 = target: T6, HDAC8 (Homo sapiens, UniProt Q9BY41); assay: HDAC enzymatic assay (Reaction Biology), HDAC8 substrate; type: biochemical; design: purchased Reaction Biology
T6 sequence (Q9BY41 1-377): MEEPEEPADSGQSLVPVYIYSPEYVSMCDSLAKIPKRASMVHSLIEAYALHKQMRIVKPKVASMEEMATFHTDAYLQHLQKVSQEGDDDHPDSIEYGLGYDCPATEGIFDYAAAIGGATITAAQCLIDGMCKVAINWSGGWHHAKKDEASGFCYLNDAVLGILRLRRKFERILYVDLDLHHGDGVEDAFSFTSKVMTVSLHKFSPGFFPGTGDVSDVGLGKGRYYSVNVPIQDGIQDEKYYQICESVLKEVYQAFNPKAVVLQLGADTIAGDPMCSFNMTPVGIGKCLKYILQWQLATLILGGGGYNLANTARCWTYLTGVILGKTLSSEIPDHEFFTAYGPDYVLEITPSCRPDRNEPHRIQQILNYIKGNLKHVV
Procedure: as §2, §3
(HDAC8 only substrate: 50 μM, Arg-His-Lys(Ac)-Lys(Ac))-AMC
as §5, §6, §7

Row | IC50 (VHL) [µM] | cellular HDAC3 protein levels, change in relative protein abundance (heat map FIG. 2) (HDAC3 [2]; 1 μM, 5 hours, vs DMSO) | HDAC3 protein levels, relative protein abundance compared to DMSO control (HDAC3 [2]; scatter plots FIG. 1 and FIG. 3) | inhibition of HDAC1 deacetylase activity in vitro (in words) (HDAC1) | IC50 (HDAC1; 10-dose response curve, read-out: Compound IC50 (M), HDAC1) [M] | inhibition of HDAC2 deacetylase activity in vitro (in words) (HDAC2) | IC50 (HDAC2; 10-dose response curve, read-out: Compound IC50 (M), HDAC2) [M] | inhibition of HDAC3 deacetylase activity in vitro (in words) (HDAC3 [3]) | IC50 (HDAC3 [3]; 10-dose response curve, read-out: Compound IC50 (M), HDAC3) [M] | inhibition of HDAC6 activity in vitro (in words) (HDAC6) | inhibition of HDAC8 deacetylase activity in vitro (in words) (HDAC8) | Structure (SMILES) | cellular protein levels of the other identified HDAC proteins (heat map FIG. 2) [1]
1 | 16.9 | down-regulation | significant and selective reduction | – | – | – | – | – | – | – | – | Cc1ncsc1-c1ccc([C@H](C)NC(=O)[C@@H]2C[C@@H](O)CN2C(=O)[C@@H](NC(=O)CCOCCN(CCc2c[nH]c3ccccc23)Cc2ccc(/C=C/C(=O)NO)cc2)C(C)(C)C)cc1 [Compound 1, (2S,4R)-1-((S)-2-(3-(2-((2-(1H-indol-3-yl)ethyl)(4-((E)-3-(hydroxyamino)-3-oxoprop-1-en-1-yl)benzyl)amino)ethoxy)propanamido)-3,3-dimethylbutanoyl)-4-hydroxy-N—((S)-1-(4-(4-methylthiazol-5-yl)phenyl)ethyl)pyrrolidine-2-carboxamide] | did not affect
2 | 298 | – | – | moderate inhibition | 9.5e-06 | moderate inhibition | 1.15e-05 | moderate inhibition | 1.12e-05 | did not inhibit | did not inhibit | Cc1ncsc1-c1ccc([C@H](C)NC(=O)[C@@H]2C[C@@H](O)CN2C(=O)[C@@H](NC(=O)CCOCCN(CCc2c[nH]c3ccccc23)Cc2ccc(/C=C/C(=O)Nc3ccccc3N)cc2)C(C)(C)C)cc1 [Compound 9, (2S,4R)-1-((S)-2-(3-(2-((2-(1H-indol-3-yl)ethyl)(4-((E)-3-((2-aminophenyl)amino)-3-oxoprop-1-en-1-yl)benzyl)amino)ethoxy)propanamido)-3,3-dimethylbutanoyl)-4-hydroxy-N—((S)-1-(4-(4-methylthiazol-5-yl)phenyl)ethyl)pyrrolidine-2-carboxamide] | –
